From US5686486A, “4-hydroxy-benzopyran-2-ones and 4-hydroxy-cycloalkyl[b]pyran-2-ones useful to treat retroviral infections” (priority 1995, dated 1997)
Where two headings read alike, the source gives them in different places.

Biological target: HIV-1 protease (Human immunodeficiency virus type 1 group M subtype B, UniProt P04585)
Assay: biochemical
Conditions: for inhibition at 0.123 µM: read-out: HIV-1 Protease % Inhib, dose 0.123 uM
Procedure, shortened: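 Percent inhibition derived from fluorescent cleavage product separated by filtration after streptavidin-bead capture of intact biotin/FITC substrate. Reaction: enzyme (10 μl, 0.1 μM stock) with substrate (20 μl, 0.2 μM stock) and compound, 1 h at room temperature in dark, pH 5.5 acetate buffer with 1.0 M NaCl and 0.05% NP-40.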

[1] = dose 1.100 uM, read-out: HIV-1 Protease % Inhib
[2] = dose 3.300 uM, read-out: HIV-1 Protease % Inhib
[3] = dose 10.000 uM, read-out: HIV-1 Protease % Inhib
[4] = dose 30.000 uM, read-out: HIV-1 Protease % Inhib
[5] = read-out: HIV-1 Protease % Inhib, dose 0.370 uM
[6] = read-out: HIV-1 Protease % Inhib, dose 1.100 uM
[7] = read-out: HIV-1 Protease % Inhib, dose 3.300 uM
[8] = read-out: HIV-1 Protease % Inhib, dose 10.000 uM
[9] = read-out: HIV-1 Protease % Inhib, dose 30.000 uM

| SMILES | inhibition at 1.1 µM [1] | inhibition at 3.3 µM [2] | inhibition at 10 µM [3] | inhibition at 30 µM [4] | inhibition at 0.123 µM | inhibition at 0.37 µM [5] | inhibition at 1.1 µM [6] | inhibition at 3.3 µM [7] | inhibition at 10 µM [8] | inhibition at 30 µM [9] | also measured |
| --- | --- | --- | --- | --- | --- | --- | --- | --- | --- | --- | --- |
| CCNC(=S)Nc1cccc(C(c2c(O)c3c(oc2=O)CCCCCC3)C2CC2)c1 (stereo not drawn) [Example 367, Thiourea, N-[3-[cyclopropyl(5,6,7,8,9,10-hexahydro-4-hydroxy-2-oxo-2H-cycloocta[b]pyran-3-yl)methyl]phenyl]-N'-ethyl-] | 23.7% | 58.5% | 86.1% | 102% |  |  |  |  |  |  |  |
| O=c1oc2c(c(O)c1C(c1cccc(NC(=S)Cc3ccccc3)c1)C1CC1)CCCCCC2 (stereo not drawn) [Example 368, Benzeneethanethioamide, N-[3-[cyclopropyl(5,6,7,8,9,10-hexahydro-4-hydroxy-2-oxo-2H-cycloocta[b]pyran-3-yl)methyl]phenyl]-] | 17.4% | 54.5% | 77.8% | 86.8% |  |  |  |  |  |  |  |
| CC(C)C(c1cccc(NC(=O)OCc2ccccc2)c1)c1c(O)c2c(oc1=O)CCCCCC2 (stereo not drawn) [Example 370, [3-[1-(5,6,7,8,9,10-Hexahydro-4-hydroxy-2-oxo-2H-cycloocta[b]pyran-3-yl)-2-methylpropyl]phenyl]-carbamic acid, phenylmethyl ester] |  |  | 19.4% | 33.1% |  |  |  |  |  |  |  |
| CC(C)C(c1cccc(NS(=O)(=O)c2ccc(C#N)cc2)c1)c1c(O)c2c(oc1=O)CCCCCC2 (stereo not drawn) [Example 372, 4-Cyano-N-[3-[1-(6,7,8,9,10-hexahydro-4-hydroxy-2-oxo-2H-cycloocta[b]pyran-3-yl)-2-methylpropyl]phenyl]-benzenesulfonamide] |  |  |  |  | 65.3% | 91.3% | 105% | 108% | 109% | 106% |  |
| CCCC(c1cccc(NC(=O)OCc2ccccc2)c1)c1c(O)c2c(oc1=O)CCCCCC2 (stereo not drawn) [Example 375, [3-[1-(5,6,7,8,9,10-Hexahydro-4-hydroxy-2-oxo-2H-cycloocta[b]pyran-3-yl)butyl]phenyl]-carbamic acid, phenylmethyl ester] | 28.5% | 57.4% | 79% | 86% |  |  |  |  |  |  | inhibition at 0.37 µM (dose 0.370 uM, read-out: HIV-1 Protease % Inhib): 10.2% |
| O=c1oc2c(c(O)c1C(c1ccc(CO)o1)C1CC1)CCCCCC2 (stereo not drawn) [Example 383] | 28.9% | 73% | 90.2% | 94.6% |  |  |  |  |  |  |  |
| COCOCc1ccc(C(c2c(O)c3c(oc2=O)CCCCCC3)C2CC2)o1 (stereo not drawn) [Example 386] | 14.3% | 35.4% | 64.5% | 96.3% |  |  |  |  |  |  |  |
| O=c1oc2c(c(O)c1C(c1ccc(CNS(=O)(=O)c3ccc(F)cc3)o1)C1CC1)CCCCCC2 (stereo not drawn) [Example 390] | 13.1% | 43.6% | 66.4% | 85.2% |  |  |  |  |  |  |  |
| N#Cc1ccc(S(=O)(=O)NCc2ccc(C(c3c(O)c4c(oc3=O)CCCCCC4)C3CC3)o2)cc1 (stereo not drawn) [Example 391] |  | 28.3% | 59.1% | 84.2% |  |  |  |  |  |  |  |
| N#Cc1ccc(S(=O)(=O)NCc2ccc(C(c3c(O)c4c(oc3=O)CCCCCC4)C3CC3)s2)cc1 (stereo not drawn) [Example 392] | 11.5% | 47% | 77.6% | 99.7% |  |  |  |  |  |  |  |
| O=c1oc2c(c(O)c1C(c1ccc(CNS(=O)(=O)c3ccc(F)cc3)s1)C1CC1)CCCCCC2 (stereo not drawn) [Example 393] |  | 37.5% | 66.3% | 89.8% |  |  |  |  |  |  |  |
| CCCCOc1ccc(S(=O)(=O)Nc2cccc(C(c3c(O)c4c(oc3=O)CCCCCC4)C3CC3)c2)cc1 (stereo not drawn) [Example 406, 4-Butoxy-N-[3-[cyclopropyl(5,6,7,8,9,10-hexahydro-4-hydroxy-2-oxo-2H-cycloocta[b]pyran-3-yl)methyl]phenyl]-benzenesulfonamide] |  |  |  |  | 37.1% | 69.4% |  |  |  |  | HIV-1 Protease % Inhib (dose 1.100 uM): 87.61%; HIV-1 Protease % Inhib (dose 3.300 uM): 85.17%; HIV-1 Protease % Inhib (dose 10.000 uM): 97.39%; HIV-1 Protease % Inhib (dose 30.000 uM): 97.21% |
| O=c1oc2c(c(O)c1C(c1cccc(NS(=O)(=O)c3ccc(Cl)c(Cl)c3Cl)c1)C1CC1)CCCCCC2 (stereo not drawn) [Example 410, 2,3,4-Trichloro-N-[3-[cyclopropyl(5,6,7,8,9,10-hexahydro-4-hydroxy-2-oxo-2H-cycloocta[b]pyran-3-yl)methyl]phenyl]-benzenesulfonamide] |  |  |  |  | 49.5% | 79.7% | 91.4% | 90.9% | 96.8% | 98.3% |  |
| CC(C)C(c1cccc(NS(=O)(=O)c2cccc3cccnc23)c1)c1c(O)c2c(oc1=O)CCCCCC2 (stereo not drawn) [Example 416, 8-Quinolinesulfonamide, N-[3-[1-(5,6,7,8,9,10-hexahydro4-hydroxy-2-oxo-2H-cycloocta[b]pyran-3-yl)-2-methylpropyl]phenyl]-] |  |  |  |  | 50.9% | 88% | 102% | 99.7% | 98.6% | 97.8% |  |
| CC(C)C(c1cccc(NS(=O)(=O)c2cccnc2)c1)c1c(O)c2c(oc1=O)CCCCCC2 (stereo not drawn) [Example 417, 3-Pyridinesulfonamide, N-[3-[1-(5,6,7,8,9,10-hexahydro4-hydroxy-2-oxo-2H-cycloocta[b]pyran-3-yl)-2-methylpropyl]phenyl]-] |  |  |  |  | 36.4% | 65.9% | 89.2% | 95.1% | 102% | 97.3% |  |
| CC(C)C(c1cccc(NS(=O)(=O)c2ccc(F)cc2)c1)c1c(O)c2c(oc1=O)CCCCCC2 (stereo not drawn) [Example 418, Benzenesulfonamide, N-[3-[1-(5,6,7,8,9,10-hexahydro-4-hydroxy-2-oxo-2H-cycloocta[b]pyran-3-yl)-2-methylpropyl]phenyl]4-fluoro-] |  |  |  |  | 81.8% | 87.5% | 98.6% | 110% | 119% | 123% |  |
| CCCCC(c1cccc(NS(=O)(=O)c2ccc(C#N)cc2)c1)c1c(O)c2c(oc1=O)CCCCCC2 (stereo not drawn) [Example 421, Benzenesulfonamide, 4-cyano-N-[3-[1-(5,6,7,8,9,10-hexahydro-4-hydroxy-2-oxo-2H-cycloocta[b]pyran-3-yl)pentyl]phenyl]-] |  |  |  |  | 93.9% | 104% | 99.1% | 97.9% | 108% | 90% |  |
| CCCCC(c1cccc(NS(=O)(=O)c2ccc(F)cc2)c1)c1c(O)c2c(oc1=O)CCCCCC2 (stereo not drawn) [Example 422] |  |  |  |  | 100% | 95.4% | 96.5% | 103% | 97.6% | 95.2% |  |
| CC(C)CC(c1cccc(NS(=O)(=O)c2ccc(F)cc2)c1)c1c(O)c2c(oc1=O)CCCCCC2 (stereo not drawn) [Example 425, Benzenesulfonamide, N-[3-[1-(5,6,7,8,9,10-hexahydro-4-hydroxy-2-oxo-2H-cycloocta[b]pyran-3-yl)-3-methylbutyl]phenyl]-4-fluoro-] |  |  |  |  | 97.4% | 109% | 101% | 108% | 98.5% | 98.5% |  |
| CC(C)CC(c1cccc(NS(=O)(=O)c2cccc3cccnc23)c1)c1c(O)c2c(oc1=O)CCCCCC2 (stereo not drawn) [Example 428, 8-Quinolinesulfonamide, N-[3-[1-(5,6,7,8,9,10-hexahydro4-hydroxy-2-oxo-2H-cycloocta[b]pyran-3-yl)-3-methylbutyl]phenyl]-] |  |  |  |  | 86.3% | 84% | 86.5% | 87.1% | 87.9% | 84.2% |  |
| CC(C)CC(c1cccc(NS(=O)(=O)c2cccnc2)c1)c1c(O)c2c(oc1=O)CCCCCC2 (stereo not drawn) [Example 429, 3-Pyridinesulfonamide, N-[3-[1-(5,6,7,8,9,10-hexahydro4-hydroxy-2-oxo-2H-cycloocta[b]pyran-3-yl)-3-methylbutyl]phenyl]-] |  |  |  |  | 88.6% | 98.2% | 99.9% | 103% | 107% | 108% |  |
| CCCC(c1cccc(NS(=O)(=O)c2ccc(F)cc2)c1)c1c(O)c2c(oc1=O)CCCCCC2 (stereo not drawn) [Example 430, Benzenesulfonamide, N-[3-[1-(5,6,7,8,9,10-hexahydro-4-hydroxy-2-oxo-2H-cycloocta[b]pyran-3-yl)butyl]phenyl]-4-fluoro-] |  |  |  |  | 72.3% | 98.2% | 96.6% | 104% | 105% | 97.3% |  |
| O=C(Nc1ccc(C(c2c(O)c3c(oc2=O)CCCCCC3)C2CC2)cc1)OCc1ccccc1 (stereo not drawn) [Example 470, Carbamic acid, [4-[cyclopropyl (5,6,7,8,9,10-hexahydro-4-hydroxy-2-oxo-2H-cycloocta[b]pyran-3-yl)methyl]phenyl]-phenylmethyl ester] | 16.1% | 59.2% | 102% | 118% |  |  |  |  |  |  |  |
| Nc1ccc(C(c2c(O)c3c(oc2=O)CCCCCC3)C2CC2)cc1 (stereo not drawn) [Example 471, 3-[(4-Aminophenyl)cyclopropylmethyl]-5,6,7,8,9,10-hexahydro-4-hydroxy-2H-cycloocta[b]pyran-2-one] | 37.5% | 75.6% | 102% | 110% |  |  |  |  |  |  |  |
